The supplement of paper PMC4862054

How the values were obtained:
Settings in all cases: incubation time: 72 h
CAL-120 [1] = assay: normalised response (% of control), CellTiter-Glo; higher = more viable cells (100 = DMSO, 0 = benzethonium chloride kill control)
In short: (§1)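 After 72 h with compound in 384-well plates, breast cancer cell lines seeded as 20 µl suspension were read for CellTox Green fluorescence at 485/520 nm. CellTiter-Glo luminescence was then read after 10 min at room temperature. Compound was present at 5 concentrations in 10-fold steps over a 10,000-fold range set per compound, and plates were normalised to 0.1 % DMSO (100) and a positive kill control (0). Values are normalised signals, each at a single concentration.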

HCC1599 [2] = assay: as above
In short: as §1

DU-4475 [3] = assay: as above
In short: as §1

Hs578T [4] = assay: as above
In short: as §1

MDA-MB-453 [5] = assay: as above
In short: as §1

MDA-MB-231 [6] = assay: as above
In short: as §1

MDA-MB-436 [7] = assay: as above
In short: as §1

HCC1143 [8] = assay: as above
In short: as §1

CAL-85-1 [9] = assay: as above
In short: as §1

MFM-223 [10] = assay: as above
In short: as §1

BT-549 [11] = assay: as above
In short: as §1

HCC1937 [12] = assay: as above
In short: as §1

SK-BR-3 = assay: as above
In short: as §1

MDA-MB-468 [13] = assay: as above
In short: as §1

HDQ-P1 [14] = assay: as above
In short: as §1

BT-474 [15] = assay: as above
In short: as §1

CAL-148 [16] = assay: as above
In short: as §1

CAL-51 [17] = assay: as above
In short: as §1

MCF-10A [18] = assay: as above
In short: as §1

CAL-120 [19] = assay: normalised response (% of control), CellTox Green; higher = less cell death (100 = DMSO, 0 = benzethonium chloride kill control)
In short: as §1

HCC1599 [20] = assay: as above
In short: as §1

DU-4475 [21] = assay: as above
In short: as §1

Hs578T [22] = assay: as above
In short: as §1

MDA-MB-453 [23] = assay: as above
In short: as §1

MDA-MB-231 [24] = assay: as above
In short: as §1

MDA-MB-436 [25] = assay: as above
In short: as §1

CAL-85-1 [26] = assay: as above
In short: as §1

MFM-223 [27] = assay: as above
In short: as §1

BT-549 [28] = assay: as above
In short: as §1

HCC1937 [29] = assay: as above
In short: as §1

MDA-MB-468 [30] = assay: as above
In short: as §1

HDQ-P1 [31] = assay: as above
In short: as §1

BT-474 [32] = assay: as above
In short: as §1

CAL-148 [33] = assay: as above
In short: as §1

CAL-51 [34] = assay: as above
In short: as §1

MCF-10A [35] = assay: as above
In short: as §1

HCC1143 [36] = assay: as above
In short: as §1

Row | SMILES | normalised response (CAL-120 [1]) [%] | normalised response (HCC1599 [2]) [%] | normalised response (DU-4475 [3]) [%] | normalised response (Hs578T [4]) [%] | normalised response (MDA-MB-453 [5]) [%] | normalised response (MDA-MB-231 [6]) [%] | normalised response (MDA-MB-436 [7]) [%] | normalised response (HCC1143 [8]) [%] | normalised response (CAL-85-1 [9]) [%] | normalised response (MFM-223 [10]) [%] | normalised response (BT-549 [11]) [%] | normalised response (HCC1937 [12]) [%] | normalised response (SK-BR-3) [%] | normalised response (MDA-MB-468 [13]) [%] | normalised response (HDQ-P1 [14]) [%] | normalised response (BT-474 [15]) [%] | normalised response (CAL-148 [16]) [%] | normalised response (CAL-51 [17]) [%] | normalised response (MCF-10A [18]) [%] | normalised response (CAL-120 [19]) [%] | normalised response (HCC1599 [20]) [%] | normalised response (DU-4475 [21]) [%] | normalised response (Hs578T [22]) [%] | normalised response (MDA-MB-453 [23]) [%] | normalised response (MDA-MB-231 [24]) [%] | normalised response (MDA-MB-436 [25]) [%] | normalised response (CAL-85-1 [26]) [%] | normalised response (MFM-223 [27]) [%] | normalised response (BT-549 [28]) [%] | normalised response (HCC1937 [29]) [%] | normalised response (MDA-MB-468 [30]) [%] | normalised response (HDQ-P1 [31]) [%] | normalised response (BT-474 [32]) [%] | normalised response (CAL-148 [33]) [%] | normalised response (CAL-51 [34]) [%] | normalised response (MCF-10A [35]) [%] | normalised response (HCC1143 [36]) [%]
1 | CCN(CC)CCCC(C)Nc1c2ccc(Cl)cc2nc2ccc(OC)cc12 (stereo not drawn) [Mepacrine] (5000 nM) | 110 | 101 | 97.3 | 104 | 102 | 98.1 | 103 | 98 | 101 | 92.5 | 93 | 101 | 102 | 94.4 | 112 | 104 | 88.7 | 113 | 108 | 101 | 98 | 102 | 84.3 | 107 | 81.8 | 99.8 | 106 | 97.6 | 57.4 | 105 | 89.3 | 111 | 97.2 | 71.8 | 103 | 99.3 | 
2 | C=CC(=O)N1CCC[C@@H](n2nc(-c3ccc(Oc4ccccc4)cc3)c3c(N)ncnc32)C1 [Ibrutinib] (100 nM) | 96.2 | 118 | 105 | 106 | 72.5 | 105 | 102 | 100 | 90.4 | 107 | 111 | 97.6 | 27.5 | 93.1 | 82.5 | 97.5 | 95.4 | 73.1 | 91 | 103 | 99.2 | 103 | 56.5 | 104 | 111 | 92.1 | 84.1 |  | 117 |  | 122 | 102 | 83.1 | 99.6 | 93.6 | 101 | 92.1
3 | C=CC(=O)Nc1cc2c(Nc3ccc(F)c(Cl)c3)ncnc2cc1OCCCN1CCOCC1 [Canertinib] (1000 nM) | 94.2 | 81.2 | 101 | 104 | 73.6 | 78 | 90.5 | 91.5 | 49.2 | 95 | 80.1 | 88.1 | 27.2 | 62 | 67.4 | 76.8 | 75.3 | 62.2 | 32.2 | 97.7 | 114 | 104 | 109 | 102 | 104 | 88.9 | 73.3 | 106 | 135 |  | 140 | 97.2 | 83.2 | 100 | 93.2 | 80.4 | 102
4 | C[C@H]1C[C@@H]2[C@H]([C@@H](O)C[C@@]3(C)[C@H]2CC[C@]3(O)C(=O)CO)[C@@]2(C)C=CC(=O)C=C12 [Methylprednisolone] (1000 nM) | 80.5 | 105 | 100 | 114 | 101 | 159 | 105 | 109 | 117 | 106 | 100 | 97.9 | 94.5 | 119 | 83.2 | 151 | 108 | 108 | 96.7 | 101 | 109 | 103 | 105 | 98.5 | 142 |  | 104 |  | 131 | 127 | 109 | 105 | 98.6 | 107 | 108 | 108 | 108
5 | Nc1ccccc1NC(=O)c1ccc(CNC(=O)OCc2cccnc2)cc1 [Entinostat] (1000 nM) | 97 | 83.6 | 102 | 86.8 | 89.8 | 93.2 | 90.5 | 98.1 | 105 | 98.2 | 62.1 | 87.8 | 88.8 | 91.4 | 93.5 | 92.4 | 93.7 | 45.2 | 142 | 102 | 90.1 | 99.9 | 75 | 102 | 108 | 86.4 | 107 | 90.1 | 114 | 116 | 65.9 | 109 | 99.8 | 98.3 | 70.2 | 90.1 | 
